Experimental data as given in PubChem BioAssay AID1199 (EPA DSSTox, 2008).
Activity calls are given as the source filed them.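 The calls were made as follows: active = a tumour-causing dose and a tumour site recorded for mice in at least one sex group; inconclusive = only government mouse studies exist and were judged inadequate; inactive = mouse studies exist but none gave tumours.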

What follows are molecules tested on mouse carcinogenicity bioassay, TD50 from CPDB (assay: DSSTox (CPDBAS) Carcinogenic Potency Database Summary Mouse Bioassay Results). Details: not given.
How it was run: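 Values are TD50 carcinogenic potencies from mouse chronic bioassays, taking the most positive result for each sex-species. Sources are published literature and NCI/NTP studies; target sites reflect author-reported positive findings.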

**Q.** How did the Potency turn out when O=NN1CCCCC1 was run?
**A.** 0.0114 mmol/kg/day

Same assay, conditions: TD50_Mouse_Note: TD50_Mouse_mmol was not calculated for this mixture, but Activiity Score is assigned value of 50 to indicate active

**Q.** How did the outcome turn out when COc1cc2c(c3oc(=O)c4c(c13)CCOC4=O)C1C=COC1O2 (configuration not stated) was run?
**A.** active; hematopoietic system

Same assay, conditions: TD50_Mouse_Note: TD50 is harmonic mean of more than one positive test; TargetSites_Mouse_BothSexes: liver

**Q.** How did the Potency turn out when ClC1=C(Cl)[C@]2(Cl)[C@@H]3[C@H]4C=CC(C4)[C@@H]3C1(Cl)C2(Cl)Cl was run?
**A.** 0.00348 mmol/kg/day

Same assay, conditions: TD50_Mouse_Note: TD50 is harmonic mean of more than one positive test; TargetSites_Mouse_Female: adrenal gland; liver

**Q.** N=C1C=CC(=C(c2ccc(N)cc2)c2ccc(N)cc2)C=C1 was tested. Which Potency did it give?
**A.** 0.159 mmol/kg/day

Same assay, conditions: TD50_Mouse_Note: TD50 is harmonic mean of more than one positive test; TargetSites_Mouse_Female: ear Zymbals gland; harderian gland; liver; lung; mammary gland; peritoneal cavity; stomach; subcutaneous tissue; vascula

**Q.** For C=CC(=C)Cl, which Potency is on record?
**A.** 0.0923 mmol/kg/day

Same assay, conditions: TD50_Mouse_Note: TD50 is harmonic mean of more than one positive test; TargetSites_Mouse_Female: esophagus; liver; lung; nasal cavity; oral cavity; stomach

**Q.** O=NN1CCCCCC1 was tested. Which Potency did it give?
**A.** 0.00412 mmol/kg/day

Same assay, conditions: TD50_Mouse_Note: TD50 is harmonic mean of more than one positive test; TargetSites_Mouse_Female: hematopoietic system

**Q.** With Cn1c(N)nc2ncc(-c3ccccc3)cc21 as the molecule, how does the Potency read?
**A.** 0.127 mmol/kg/day

Same assay, conditions: TD50_Mouse_Note: TD50 is harmonic mean of more than one positive test; TargetSites_Mouse_Female: hematopoietic system; lung

**Q.** Which Potency does the source give for CCCCNNCCCC here?
**A.** 0.213 mmol/kg/day

**Q.** For NNC(=O)c1ccccc1, which Potency is on record?
**A.** 0.0704 mmol/kg/day

Same assay, conditions: TD50_Mouse_Note: TD50 is harmonic mean of more than one positive test; TargetSites_Mouse_Female: liver

**Q.** How did the Potency turn out when Nc1ccccc1N was run?
**A.** 4.06 mmol/kg/day

**Q.** CCC1(c2ccccc2)C(=O)NCNC1=O was tested. Which Potency did it give?
**A.** 0.12 mmol/kg/day

**Q.** How did the Potency turn out when CC(C)(CCCOc1ccc(OCCCC(C)(C)C(=O)O)c(-c2ccccc2)c1)C(=O)O was run?
**A.** 0.125 mmol/kg/day

**Q.** For Cc1ccc(C)c(N)c1, which Potency is on record?
**A.** 3.97 mmol/kg/day

**Q.** How did the Potency turn out when Brc1cc(Br)c(-c2c(Br)c(Br)c(Br)c(Br)c2Br)c(Br)c1Br was run?
**A.** 0.00418 mmol/kg/day

Same assay, conditions: TD50_Mouse_Note: TD50 is harmonic mean of more than one positive test; TargetSites_Mouse_Female: liver; stomach

**Q.** With O=C(O)c1cc(Oc2ccc(C(F)(F)F)cc2Cl)ccc1[N+](=O)[O-] as the molecule, how does the Potency read?
**A.** 0.39 mmol/kg/day

**Q.** How did the Potency turn out when CC(=O)O[C@]1(C(C)=O)CC[C@H]2[C@@H]3C=C(Cl)C4=CC(=O)[C@@H]5C[C@@H]5[C@]4(C)[C@H]3CC[C@@]21C was run?
**A.** 0.0525 mmol/kg/day

Same assay, conditions: TD50_Mouse_Note: TD50 is harmonic mean of more than one positive test; TargetSites_Mouse_Female: liver; vascular system

**Q.** Cc1cccn2c1nc1ccc(N)nc12 was tested. Which Potency did it give?
**A.** 0.0272 mmol/kg/day

**Q.** Which Potency does the source give for Cc1ccccc1N here?
**A.** 5.85 mmol/kg/day

**Q.** Which Potency does the source give for Cc1cc2c(nc1N)[nH]c1ccccc12 here?
**A.** 0.0863 mmol/kg/day

Same assay, conditions: TD50_Mouse_Note: TD50 is harmonic mean of more than one positive test; TargetSites_Mouse_Female: lung

**Q.** How did the Potency turn out when CCCc1ccc2c(c1)OCO2 was run?
**A.** 0.761 mmol/kg/day

Same assay, conditions: TD50_Mouse_Note: TD50 is harmonic mean of more than one positive test; TargetSites_Mouse_Female: lung; vascular system

**Q.** How did the Potency turn out when COC(=O)C1=CCCN(C)C1 was run?
**A.** 0.206 mmol/kg/day

Same assay, conditions: TD50_Mouse_Note: TD50 is harmonic mean of more than one positive test; TargetSites_Mouse_Female: no positive results

**Q.** For NNCCO, which Potency is on record?
**A.** 0.00522 mmol/kg/day

**Q.** With [CH3][Hg][Cl] as the molecule, how does the Potency read?
**A.** 0.00578 mmol/kg/day

Same assay, conditions: TD50_Mouse_Note: TD50 is harmonic mean of more than one positive test; TargetSites_Mouse_Female: ovary

**Q.** Which Potency does the source give for CC/C(=C(\c1ccccc1)c1ccc(OCCN(C)C)cc1)c1ccccc1 here?
**A.** 0.00779 mmol/kg/day

Same assay, conditions: TD50_Mouse_Note: TD50 is harmonic mean of more than one positive test; TargetSites_Mouse_Female: urinary bladder

**Q.** CCS(=O)(=O)c1ccc(S(N)(=O)=O)c2ccccc12 was tested. Which Potency did it give?
**A.** 0.0705 mmol/kg/day

Same assay, conditions: TD50_Mouse_Note: TD50 is harmonic mean of more than one positive test; TargetSites_Mouse_Female: vascular system

**Q.** For O=[N+]([O-])c1ccc(Cl)cc1, which Potency is on record?
**A.** 3 mmol/kg/day

**Q.** Cc1ccc2c(c1[N+](=O)[O-])C(=O)c1ccccc1C2=O was tested. Which Potency did it give?
**A.** 0.00584 mmol/kg/day

Same assay, conditions: TD50_Mouse_Note: no positive results

**Q.** How did the outcome turn out when C=C1CC[C@H](O)C/C1=C/C=C1\CCC[C@]2(C)[C@@H]([C@H](C)/C=C/[C@H](C)C(C)C)CC[C@@H]12 was run?
**A.** inactive

**Q.** O=C(O)O was tested. Which outcome did it give?
**A.** inactive; no positive results

**Q.** For CSCCC(N)C(=O)O (configuration not stated), which outcome is on record?
**A.** inactive; no positive results

Same assay, conditions: TD50_Mouse_Note: no positive results; TargetSites_Mouse_Female: no positive results

**Q.** How did the outcome turn out when O=C1O[C@H]([C@H](O)CO)C(O)=C1O was run?
**A.** inactive; no positive results

**Q.** How did the outcome turn out when CC(=O)Nc1ccc(C(=O)CCl)cc1 was run?
**A.** inactive; no positive results

**Q.** With c1ccc2c(c1)Oc1ccccc1O2 as the molecule, how does the outcome read?
**A.** inactive; no positive results

**Q.** Which outcome does the source give for CCCCOC(=O)c1ccc(O)cc1 here?
**A.** inactive; no positive results

**Q.** How did the outcome turn out when Cc1ccc(N)cc1Cl was run?
**A.** inactive; no positive results

**Q.** Which outcome does the source give for Oc1ccccc1 here?
**A.** inactive; no positive results

**Q.** With Nc1ccc(N)cc1 as the molecule, how does the outcome read?
**A.** inactive; no positive results

**Q.** COc1ccc2c3c1O[C@H]1[C@@H](O)C=C[C@H]4[C@@H](C2)N(C)CC[C@@]341 was tested. Which outcome did it give?
**A.** inactive; no positive results

**Q.** For O=C(O)c1cccnc1, which outcome is on record?
**A.** inactive; no positive results

**Q.** For O=S(O)S(=O)(=O)O, which outcome is on record?
**A.** inactive; no positive results

**Q.** Which outcome does the source give for N#CC(c1ccccc1)c1ccccc1 here?
**A.** inactive; no positive results

**Q.** For O=C(O)CN(CCN(CC(=O)O)CC(=O)O)CC(=O)O, which outcome is on record?
**A.** inactive; no positive results
